# Laboratory results: patent US11040954B1, “CXCR3 receptor agonists” (RECEPTOS LLC, priority 2016, dated 2021)
# Molecular target: T1, CXCR3 (Homo sapiens, UniProt P49682)
# T1 construct: host or cells: CHO-K1 (cAMP Hunter CHOK1 CXCR3 Gi cell line)
# T1 sequence (P49682 1-368): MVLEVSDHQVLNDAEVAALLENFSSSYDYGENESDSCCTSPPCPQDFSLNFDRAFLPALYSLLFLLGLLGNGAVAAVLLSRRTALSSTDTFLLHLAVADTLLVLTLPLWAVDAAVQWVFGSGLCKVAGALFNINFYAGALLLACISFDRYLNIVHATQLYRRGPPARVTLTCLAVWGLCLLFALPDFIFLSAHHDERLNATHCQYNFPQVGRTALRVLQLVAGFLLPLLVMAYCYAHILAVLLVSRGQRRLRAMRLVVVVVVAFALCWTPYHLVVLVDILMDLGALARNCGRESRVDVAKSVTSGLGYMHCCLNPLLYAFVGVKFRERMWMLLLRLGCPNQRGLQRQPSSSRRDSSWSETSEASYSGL
# Assay: CXCR3 cAMP agonist assay (cAMP Hunter CHOK1 CXCR3 Gi cell line, forskolin-stimulated, HitHunter cAMP detection)
# Format: cell-based
# Conditions: cAMP Hunter CHOK1 CXCR3 Gi cells, 20 μM forskolin, 30 minutes; read-out: Activity (CXCR3 cAMP agonist assay compound EC50)
# Procedure, shortened: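 Agonist activity was measured as suppression of forskolin (20 μM)-induced cAMP, read by luminescent enzyme-fragment complementation with a cAMP standard curve and CXCL11 defining full efficacy. Assay used 50,000 CXCR3 Gi CHOK1 cells/well in pH 7.4 HEPES-buffered HBSS with 0.1% BSA, compound 0-10 μM over 12 points, 30 min incubation.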
row,SMILES,EC50
1,"CC1(C)CCCCN1C(=O)CCC(=O)N1Cc2ccc(F)cc2C[C@H]1C(=O)N[C@@H](CCN)C(=O)Nc1ccc(Cl)c(Cl)c1F [Compound 34-1, (S)—N—((S)-4-amino-1-((3,4-dichloro-2-fluorophenyl)amino)-1-oxobutan-2-yl)-2-(4-(2,2-dimethylpiperidin-1-yl)-4-oxobutanoyl)-6-fluoro-1,2,3,4-tetrahydroisoquinoline-3-carboxamide]",< 50 nM
2,Cc1cc(NC(=O)[C@H](Cc2cnc(N)nc2)NC(=O)[C@@H]2Cc3ccccc3CN2C(=O)CCC(=O)c2ccccc2)ccc1Cl [Compound 3-14],250 to 500 nM
3,Cc1cc(NC(=O)[C@@H](Cc2cc3ccccc3[nH]2)NC(=O)[C@@H]2Cc3ccccc3CN2C(=O)CCC(=O)c2ccccc2)ccc1Cl [Compound 4-5],> 500 nM
4,NCC[C@H](NC(=O)[C@@H]1Cc2ccccc2CN1C(=O)CCC(=O)N1CCC2CCCCC2C1)C(=O)Nc1ccc2c(c1)CCC2 (some centres unmarked) [Compound 10-5],< 50 nM
5,Cc1cc(NC(=O)[C@H](CCN)NC(=O)[C@@H]2Cc3ccccc3CN2C(=O)CCC(=O)N2CCC[C@H]2CF)ccc1Cl [Compound 12-139],< 50 nM
6,Cc1cc(NC(=O)[C@H](CCN)NC(=O)[C@@H]2Cc3ccccc3CN2C(=O)CCC(=O)N2CCC[C@@H]2c2ccccc2)ccc1Cl [Compound 12-132],50 to 250 nM
7,CN(C(=O)CCC(=O)N1Cc2ccccc2C[C@H]1C(=O)N[C@@H](CCN)C(=O)Nc1ccc(Cl)c(Cl)c1F)C1CCC1 [Compound 15-37],50 to 250 nM
8,Cc1cc(NC(=O)[C@H](CCN)NC(=O)[C@@H]2Cc3ccccc3CN2C(=O)CCC(=O)N2CCC2)ccc1Cl [Compound 12-30],50 to 250 nM
9,Cc1cc(NC(=O)[C@H](CCN2CCCCC2)NC(=O)[C@@H]2Cc3ccccc3CN2C(=O)CCC(=O)c2ccccc2)ccc1Cl [Compound 3-9],< 50 nM
10,Cc1cc(NC(=O)[C@H](CCN)NC(=O)[C@@H]2Cc3ccccc3CN2C(=O)CCC(=O)N2CCC(F)CC2)ccc1Cl [Compound 12-67],< 50 nM
11,Cc1cc(NC(=O)[C@H](CCN)NC(=O)[C@@H]2Cc3ccccc3CN2C(=O)CCC(=O)N2CCN(C3CC3)CC2)ccc1Cl [Compound 12-33],50 to 250 nM
12,CC(C)C1CCCCN1C(=O)CCC(=O)N1Cc2ccccc2C[C@H]1C(=O)N[C@@H](CCN)C(=O)Nc1ccc(Cl)c(Cl)c1F (some centres unmarked) [Compound 15-21],50 to 250 nM
13,CCN1CCN(C(=O)CCC(=O)N2Cc3ccccc3C[C@H]2C(=O)N[C@@H](CCN)C(=O)Nc2ccc(Cl)c(C)c2)CC1 [Compound 12-99],50 to 250 nM
14,"Cc1cccc(NC(=O)C2(NC(=O)[C@@H]3Cc4ccccc4CN3C(=O)CCC(=O)c3ccccc3)CCNCC2)c1Cl [Compound 11-1, (S)—N-(4-((2-chloro-3-methylphenyl)carbamoyl)piperidin-4-yl)-2-(4-oxo-4-phenylbutanoyl)-1,2,3,4-tetrahydroisoquinoline-3-carboxamide]",> 500 nM
15,CC(C)(C)C1CCCCN1C(=O)CCC(=O)N1Cc2ccccc2C[C@H]1C(=O)N[C@@H](CCN)C(=O)Nc1ccc(Cl)c(Cl)c1F (some centres unmarked) [Compound 15-32],250 to 500 nM
16,Cc1cc(NC(=O)[C@H](CCN)NC(=O)[C@@H]2Cc3ccccc3CN2C(=O)CCC(=O)N2CC3CC(C3)C2)ccc1Cl [Compound 12-66],< 50 nM
17,Cc1cc(NC(=O)[C@H](CCN)NC(=O)[C@@H]2Cc3ccccc3CN2C(=O)CCC(=O)NCCOC(C)C)ccc1Cl [Compound 12-89],> 500 nM
18,Cc1c(NC(=O)C2(NC(=O)[C@@H]3Cc4ccccc4CN3C(=O)CCC(=O)c3ccccc3)CCNCC2)ccc(Cl)c1Cl [Compound 11-2],250 to 500 nM
19,CC(C)(C)CNC(=O)CCC(=O)N1Cc2ccccc2C[C@H]1C(=O)NC1(C(=O)Nc2ccc(Cl)c(Cl)c2F)CCNCC1 [Compound 12-129],250 to 500 nM
20,"Cc1cc(NC(=O)[C@@H](CC23CC(N)(C2)C3)NC(=O)[C@@H]2Cc3ccccc3CN2C(=O)CCC(=O)c2ccccc2)ccc1Cl [Compound 22-2, (S)—N—((R)-3-(3-aminobicyclo[1.1.1]pentan-1-yl)-1-((4-chloro-3-methylphenyl)amino)-1-oxopropan-2-yl)-2-(4-oxo-4-phenylbutanoyl)-1,2,3,4-tetrahydroisoquinoline-3-carboxamide]",250 to 500 nM
21,CC[C@H]1CCN(C(=O)CCC(=O)N2Cc3ccccc3C[C@H]2C(=O)N[C@@H](CCN)C(=O)Nc2ccc(Cl)c(C)c2)C1 [Compound 12-153],< 50 nM
22,Cc1cc(NC(=O)[C@H](CCN)NC(=O)[C@@H]2Cc3ccccc3CN2C(=O)CCC(=O)N2CC(Cc3ccccc3)C2)ccc1Cl [Compound 12-38],250 to 500 nM
23,NCC[C@H](NC(=O)[C@@H]1Cc2ccccc2CN1C(=O)CCC(=O)N1CCC[C@H]1c1ccccc1)C(=O)Nc1ccc(Cl)c(Cl)c1F [Compound 12-149],< 50 nM
24,Cc1cc(NC(=O)[C@H](CCN)NC(=O)[C@@H]2Cc3ccccc3CN2C(=O)CCC(=O)N2CCC[C@H]2C(F)F)ccc1Cl [Compound 12-143],< 50 nM
25,Cc1cc(NC(=O)[C@H](CCN)NC(=O)[C@@H]2Cc3ccccc3CN2C(=O)CCC(=O)N2CCN(C)C[C@@H]2C)ccc1Cl [Compound 12-116],50 to 250 nM
26,Cc1cc(NC(=O)C2(NC(=O)[C@@H]3Cc4ccccc4CN3C(=O)CCC(=O)c3ccccc3)CCNCC2)c(F)cc1Cl [Compound 11-3],< 50 nM
27,Cc1cc(NC(=O)[C@H](CCN)NC(=O)[C@@H]2Cc3ccccc3CN2C(=O)CCC(=O)N2CC3CCCCC3C2)ccc1Cl (some centres unmarked) [Compound 12-55],< 50 nM
28,Cc1cc(NC(=O)[C@H](Cc2ccccn2)NC(=O)[C@@H]2Cc3ccccc3CN2C(=O)CCC(=O)c2ccccc2)ccc1Cl [Compound 3-5],50 to 250 nM
29,Cc1cc(NC(=O)[C@H](CCN)NC(=O)[C@@H]2Cc3ccccc3CN2C(=O)CCC(=O)N2CCN(C)CC2(C)C)ccc1Cl [Compound 12-103],< 50 nM
30,Cc1cc(NC(=O)[C@H](CCN)NC(=O)[C@@H]2Cc3ccccc3CN2C(=O)CCC(=O)N2CCC[C@H]2c2ccccc2)ccc1Cl [Compound 12-147],< 50 nM

# Second part, the compound after the results:
row,EC50,SMILES
1,< 50 nM,NCC[C@H](NC(=O)[C@@H]1Cc2ccccc2CN1C(=O)CCC(=O)c1ccccc1)C(=O)Nc1ccc2ccccc2c1 [Compound 2-28]
2,50 to 250 nM,CCc1c(NC(=O)[C@H](CCN)NC(=O)[C@@H]2Cc3ccccc3CN2C(=O)CCC(=O)c2ccccc2)ccc(Cl)c1Cl [Compound 2-48]
3,250 to 500 nM,NCC[C@H](NC(=O)[C@@H]1Cc2ccccc2CN1C(=O)CCC(=O)c1ccccc1)C(=O)Nc1ccc(C(F)(F)F)c(F)c1 [Compound 2-11]
4,< 50 nM,Cc1cc(NC(=O)[C@H](CCN(C(C)C)C(C)C)NC(=O)[C@@H]2Cc3ccccc3CN2C(=O)CCC(=O)c2ccccc2)ccc1Cl [Compound 3-7]
5,> 500 nM,NCC[C@H](NC(=O)[C@@H]1Cc2ccccc2CN1C(=O)CCC(=O)c1ccccc1)C(=O)Nc1ccc2ccncc2c1 [Compound 2-42]
6,50 to 250 nM,Cc1cc(NC(=O)[C@H](CC[N+](C)(C)C)NC(=O)[C@@H]2Cc3ccccc3CN2C(=O)CCC(=O)c2ccccc2)ccc1Cl [Compound 6-7]
7,< 50 nM,Cc1c(Cl)ccc(NC(=O)[C@H](CCN)NC(=O)[C@@H]2Cc3ccccc3CN2C(=O)CCC(=O)c2ccccc2)c1Cl [Compound 14-3]
8,< 50 nM,"Cc1cc(NC(=O)[C@H](CCNCC(C)C)NC(=O)[C@@H]2Cc3ccccc3CN2C(=O)CCC(=O)c2ccccc2)ccc1Cl [Compound 8-1, (S)—N—((S)-1-((4-chloro-3-methylphenyl)amino)-4-(isobutylamino)-1-oxobutan-2-yl)-2-(4-oxo-4-phenylbutanoyl)-1,2,3,4-tetrahydroisoquinoline-3-carboxamide]"
9,< 50 nM,Cc1cc(NC(=O)[C@H](CCNC(=N)N)NC(=O)[C@@H]2Cc3ccccc3CN2C(=O)CCC(=O)c2ccccc2)ccc1Cl [Compound 3-2]
10,50 to 250 nM,Cc1cc(NC(=O)[C@H](CCC(N)=O)NC(=O)[C@@H]2Cc3ccccc3CN2C(=O)CCC(=O)c2ccccc2)ccc1Cl [Compound 3-13]
11,< 50 nM,CN1Cc2ccc(NC(=O)[C@H](CCN)NC(=O)[C@@H]3Cc4ccccc4CN3C(=O)CCC(=O)c3ccccc3)cc2C1 [Compound 2-82]
12,50 to 250 nM,Cc1cc(NC(=O)[C@H](CCCCN)NC(=O)[C@@H]2Cc3ccccc3CN2C(=O)CCC(=O)c2cccc(N(C)C)c2)ccc1Cl [Compound 7-6]
13,50 to 250 nM,NCC[C@H](NC(=O)[C@@H]1Cc2ccccc2CN1C(=O)CCC(=O)c1ccccc1)C(=O)Nc1ccc2c(c1Cl)CCC2 [Compound 2-77]
14,50 to 250 nM,Cc1cc(C(=O)CCC(=O)N2Cc3ccccc3C[C@H]2C(=O)N[C@@H](CCCCN)C(=O)Nc2ccc(Cl)c(C)c2)ccc1F [Compound 7-3]
15,< 50 nM,"Cc1cc(NC(=O)[C@H](CCNC2CC2)NC(=O)[C@@H]2Cc3ccccc3CN2C(=O)CCC(=O)c2ccccc2)ccc1Cl [Compound 16-1, (S)—N—((S)-1-((4-chloro-3-methylphenyl)amino)-4-(cyclopropylamino)-1-oxobutan-2-yl)-2-(4-oxo-4-phenylbutanoyl)-1,2,3,4-tetrahydroisoquinoline-3-carboxamide]"
16,50 to 250 nM,NCC[C@H](NC(=O)[C@@H]1Cc2ccccc2CN1C(=O)CCC(=O)c1ccccc1)C(=O)Nc1ccc2ncccc2c1 [Compound 2-43]
17,> 500 nM,NCCCC[C@H](NC(=O)[C@@H]1Cc2ccccc2CN1C(=O)CCC(=O)c1ccccc1)C(=O)Nc1cccc(F)c1 [Compound 1-8]
